Measurements: ChEMBL document CHEMBL1201862, “PubChem BioAssay data set” (2004)
One block for each compound: values may come before it. The source made the active and inactive calls.

Assays:
[1] = target: T1, Phospholipase D1 (Homo sapiens, UniProt Q13393); assay: PLD1 inhibitor potency in cells, dose response (AID 602151); assay type: functional;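 also: cellular PLD1 assay in Calu-1 cells stimulated with PMA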
T1 sequence (Q13393 whole entry): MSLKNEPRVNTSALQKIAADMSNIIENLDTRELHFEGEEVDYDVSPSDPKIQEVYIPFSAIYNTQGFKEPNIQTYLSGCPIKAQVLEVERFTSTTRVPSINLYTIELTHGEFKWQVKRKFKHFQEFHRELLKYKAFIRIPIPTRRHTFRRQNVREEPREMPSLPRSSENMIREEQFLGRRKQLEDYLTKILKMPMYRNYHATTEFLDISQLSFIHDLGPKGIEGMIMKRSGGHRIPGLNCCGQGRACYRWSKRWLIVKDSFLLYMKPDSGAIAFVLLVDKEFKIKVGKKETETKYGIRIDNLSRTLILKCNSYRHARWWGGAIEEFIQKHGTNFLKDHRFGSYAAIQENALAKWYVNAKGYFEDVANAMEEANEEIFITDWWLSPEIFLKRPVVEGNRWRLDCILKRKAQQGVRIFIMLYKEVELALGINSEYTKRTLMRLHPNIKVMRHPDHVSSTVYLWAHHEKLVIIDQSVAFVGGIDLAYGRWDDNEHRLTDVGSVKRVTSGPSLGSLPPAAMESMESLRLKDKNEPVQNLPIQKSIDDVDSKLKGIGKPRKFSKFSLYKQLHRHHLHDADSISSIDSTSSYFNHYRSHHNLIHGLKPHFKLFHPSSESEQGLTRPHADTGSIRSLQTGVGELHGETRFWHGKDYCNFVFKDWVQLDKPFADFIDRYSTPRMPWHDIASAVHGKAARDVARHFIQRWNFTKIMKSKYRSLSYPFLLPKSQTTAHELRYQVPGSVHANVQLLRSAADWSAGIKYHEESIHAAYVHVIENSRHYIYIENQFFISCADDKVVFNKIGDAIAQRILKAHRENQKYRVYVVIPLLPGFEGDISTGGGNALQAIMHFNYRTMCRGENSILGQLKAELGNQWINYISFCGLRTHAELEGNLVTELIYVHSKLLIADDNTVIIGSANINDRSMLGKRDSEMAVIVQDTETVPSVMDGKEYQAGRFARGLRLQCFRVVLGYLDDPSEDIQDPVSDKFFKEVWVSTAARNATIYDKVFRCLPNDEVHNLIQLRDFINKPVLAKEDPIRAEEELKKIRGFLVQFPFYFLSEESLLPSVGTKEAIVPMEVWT

[2] = target: Phospholipase D2 (Homo sapiens, UniProt O14939); assay: PLD2 inhibitor potency in cells, dose response (AID 602147); assay type: functional;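 also: cellular assay in HEK293 cells overexpressing GFP-tagged PLD2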
Chain of Phospholipase D2 (O14939 whole entry, the tested form may be a part): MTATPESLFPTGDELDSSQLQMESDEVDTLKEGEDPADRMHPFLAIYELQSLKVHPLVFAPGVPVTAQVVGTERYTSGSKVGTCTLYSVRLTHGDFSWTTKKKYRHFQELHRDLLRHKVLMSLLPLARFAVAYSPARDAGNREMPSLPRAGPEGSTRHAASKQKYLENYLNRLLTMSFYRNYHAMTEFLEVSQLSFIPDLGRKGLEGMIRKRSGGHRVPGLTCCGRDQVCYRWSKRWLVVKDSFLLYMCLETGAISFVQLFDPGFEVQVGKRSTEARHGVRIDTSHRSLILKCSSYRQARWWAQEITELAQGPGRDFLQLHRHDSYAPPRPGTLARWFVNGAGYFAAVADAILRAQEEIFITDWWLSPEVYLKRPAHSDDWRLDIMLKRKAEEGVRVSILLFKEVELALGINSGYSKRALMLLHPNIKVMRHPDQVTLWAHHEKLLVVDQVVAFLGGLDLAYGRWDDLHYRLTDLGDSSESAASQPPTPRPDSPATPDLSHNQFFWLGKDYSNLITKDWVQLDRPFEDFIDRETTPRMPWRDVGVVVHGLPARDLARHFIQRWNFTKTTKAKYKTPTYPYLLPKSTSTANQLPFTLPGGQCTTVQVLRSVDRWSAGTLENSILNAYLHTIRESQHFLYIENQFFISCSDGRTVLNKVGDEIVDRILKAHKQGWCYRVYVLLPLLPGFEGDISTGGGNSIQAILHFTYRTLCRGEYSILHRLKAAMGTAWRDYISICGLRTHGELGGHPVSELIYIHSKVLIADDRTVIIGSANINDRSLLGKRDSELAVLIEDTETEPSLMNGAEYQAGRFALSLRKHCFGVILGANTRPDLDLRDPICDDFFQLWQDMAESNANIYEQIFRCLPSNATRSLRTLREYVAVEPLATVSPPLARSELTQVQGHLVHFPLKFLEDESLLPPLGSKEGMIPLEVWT

[3] = inhibitors of HIV Env-driven cell fusion, dose response, cherry-pick (AID 652057); assay type: functional, cell-based
[4] = off-target signal loss in HeLa-CEM21 co-culture – HeLa F-luc CTL cells, cherry-picked, counter-screen for HIV-1 Env fusion inhibitor project, dose response (AID 652040); assay type: functional, cell-based;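 also: potency for signal decrease marking cytotoxic or nonspecific inhibition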
[5] = inhibitors of clade B AD8 Env fusion, dose response, cell-based, cherry-pick (AID 652062); assay type: functional;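 also: luciferase signal from cell-cell fusion driven by HIV-1 clade B AD8 Env; potency is for inhibitors of fusion seen as a drop in luminescence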
[6] = target: Beta-2 adrenergic receptor (Homo sapiens, UniProt P07550); assay: beta2AR agonists driving receptor internalization, dose response, cell-based, FAP fluorogen, flow cytometry, cherry pick 1 (AID 588763); assay type: functional
Chain of Beta-2 adrenergic receptor (P07550 whole entry): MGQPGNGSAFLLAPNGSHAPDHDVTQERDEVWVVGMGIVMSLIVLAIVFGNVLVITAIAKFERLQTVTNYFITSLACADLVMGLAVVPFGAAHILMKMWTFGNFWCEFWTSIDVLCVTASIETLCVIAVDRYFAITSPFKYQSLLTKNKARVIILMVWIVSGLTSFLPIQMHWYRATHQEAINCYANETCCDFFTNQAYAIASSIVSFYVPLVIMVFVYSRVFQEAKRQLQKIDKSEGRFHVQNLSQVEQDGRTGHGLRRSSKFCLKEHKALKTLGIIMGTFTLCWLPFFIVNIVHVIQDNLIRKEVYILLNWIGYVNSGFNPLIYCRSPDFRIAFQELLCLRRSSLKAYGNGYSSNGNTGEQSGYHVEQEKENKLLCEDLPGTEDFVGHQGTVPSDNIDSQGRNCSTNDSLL

[7] = target: T2, Short transient receptor potential channel 4 (Mus musculus, UniProt Q9QUQ5); assay: mouse TRPC4 channel activators, dose response, cell-based, HEK293 TRPC4/mu-opioid, Fluo-4 calcium (AID 434937); assay type: functional
T2 sequence (Q9QUQ5 whole entry): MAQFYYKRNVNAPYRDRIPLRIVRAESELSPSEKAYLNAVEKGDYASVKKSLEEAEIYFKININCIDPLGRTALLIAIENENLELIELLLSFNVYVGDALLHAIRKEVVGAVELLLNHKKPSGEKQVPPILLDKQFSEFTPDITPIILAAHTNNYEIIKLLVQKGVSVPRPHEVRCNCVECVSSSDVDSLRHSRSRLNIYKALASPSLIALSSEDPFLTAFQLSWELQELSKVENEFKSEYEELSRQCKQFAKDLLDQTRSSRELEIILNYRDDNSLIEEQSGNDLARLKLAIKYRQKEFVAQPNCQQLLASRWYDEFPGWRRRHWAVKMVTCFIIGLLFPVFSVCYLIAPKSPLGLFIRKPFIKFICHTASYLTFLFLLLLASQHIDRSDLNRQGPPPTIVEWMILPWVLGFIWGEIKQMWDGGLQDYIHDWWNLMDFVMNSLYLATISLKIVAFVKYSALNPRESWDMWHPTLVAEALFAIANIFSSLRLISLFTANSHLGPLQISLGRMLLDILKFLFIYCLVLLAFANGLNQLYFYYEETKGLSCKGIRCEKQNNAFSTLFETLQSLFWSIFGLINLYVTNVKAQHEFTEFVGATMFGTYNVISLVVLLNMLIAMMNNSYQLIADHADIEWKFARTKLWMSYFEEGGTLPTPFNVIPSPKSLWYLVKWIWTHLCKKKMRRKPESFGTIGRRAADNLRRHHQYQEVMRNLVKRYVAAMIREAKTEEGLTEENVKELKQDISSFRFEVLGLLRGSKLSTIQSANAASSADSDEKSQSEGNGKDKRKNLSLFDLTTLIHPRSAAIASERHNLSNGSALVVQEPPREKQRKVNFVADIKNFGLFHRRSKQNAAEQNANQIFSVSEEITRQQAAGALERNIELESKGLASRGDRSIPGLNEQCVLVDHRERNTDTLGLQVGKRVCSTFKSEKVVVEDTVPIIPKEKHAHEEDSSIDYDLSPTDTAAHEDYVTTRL

[8] = ZM109 Env clade C HIV-1 fusion inhibitors, dose response, HeLa effector, CEM target cells, luciferase, cherry-pick (AID 652058); assay type: functional, cell-based

SMILES: O=C(NCCN1CCC(n2c(=O)[nH]c3cc(I)ccc32)CC1)C1CC1c1ccccc1 (stereo unspecified)
- IC50 [1]: 9 nM (active)
- IC50 [2]: 345 nM (active)

SMILES: COCCn1c(=S)[nH]c2cc(C(=O)N3CCN(Cc4ccc5c(c4)OCO5)CC3)ccc2c1=O
- AC50 [3]: 29300 nM (active)
- AC50 [4]: 60200 nM (active)
- AC50 [5]: 44600 nM (active)

- EC50 [6]: 4340 nM (active)
SMILES: COc1ccc(C2/C=C\CN(Cc3ccc(N(C)C)cc3)CC(=O)N2Cc2ccc(F)cc2)cc1 (stereo unspecified)

SMILES: C[C@@H](CN1CCC2(CC1)C(=O)NCN2c1ccc(F)c(F)c1)NC(=O)c1cnc2ccccc2c1
- IC50 [1]: 16 nM (active)
- IC50 [2]: 76 nM (active)

- EC50 [7]: 237 nM (active)
SMILES: Cc1sc2ncnc(NCC(c3ccccc3)N(C)C)c2c1C (stereo unspecified)

SMILES: COc1cc2c(c(OC)c1OC)[C@@]1(c3ccccc3)CCCC[C@H]1[C@@H]2NC(=O)C(F)(F)F
- AC50 [3]: 6210 nM (active)
- AC50 [8]: 7650 nM (active)
- AC50 [4]: 5700 nM (active)

SMILES: C[C@@H](CN1CCC(n2c(=O)[nH]c3ccccc32)CC1)NC(=O)c1cccnc1
- IC50 [1]: 85 nM (active)
- IC50 [2]: 14000 nM (active)

SMILES: CC(C)[C@@H](CN1CCC2(CC1)C(=O)NCN2c1ccccc1)NC(=O)c1cc2ccccc2[nH]1
- IC50 [1]: 7 nM (active)
- IC50 [2]: 29 nM (active)
